The values that follow come from PubChem BioAssay AID1988 (Broad Institute, 2009).

The assay relates to H4 cells, SNCA 5'UTR luciferase reporter translation. Description: alpha-synuclein stem-loop luciferase translation blockers – luminescence, confirmation (AID 1988).

One may read the EC50 as the concentration giving half of the maximal effect.

Results filed as inconclusive are left out. Bounds are passed on as bounds.

Regarding `C#CCOCCOCCOCCNc1nc(N2CCN(C(=O)CCCCCCCCCCNC(=O)[C@H](CO)n3cc(CCCSC)nn3)CC2)nc(N2CCN(C(=O)CCCCCCCCCCNC(=O)[C@H](CCCCN)n3cc(C[C@@H](C)CC)nn3)CC2)n1`, the EC50 is 7.11 µM.
As for `C=C(C=O)CC1CC(O)[C@]2(C)OC3CC4OC5C[C@]6(C)O[C@]7(C)CCC8OC9C[C@]%10(C)OC%11C(C)=CC(=O)OC%11CC%10OC9C[C@@H](C)C8OC7CC6O[C@]5(C)CC5OC5C4OC3CC2O1` (stereo partly drawn), the EC50 is 7.35 µM.
The figure for `COc1ccc(O)c2c(=O)c3c(OC)cc4c(c3oc12)C1C=COC1O4` (stereo not drawn) is less than 0.1 µM.
